According to ChEMBL document CHEMBL1201862, “PubChem BioAssay data set” (2004):
The source made the active and inactive calls.

What was measured:
[1] = target: T1, Aminopeptidase N (Plasmodium falciparum FcB1/Columbia, UniProt O96935); test: P. falciparum M1AAP inhibitors, biochemical, fluorogenic H-Leu-NHMec substrate, 1536-well (AID 1445); parameters: species or system Plasmodium falciparum 3D7, 3D7
T1 sequence (O96935 whole entry): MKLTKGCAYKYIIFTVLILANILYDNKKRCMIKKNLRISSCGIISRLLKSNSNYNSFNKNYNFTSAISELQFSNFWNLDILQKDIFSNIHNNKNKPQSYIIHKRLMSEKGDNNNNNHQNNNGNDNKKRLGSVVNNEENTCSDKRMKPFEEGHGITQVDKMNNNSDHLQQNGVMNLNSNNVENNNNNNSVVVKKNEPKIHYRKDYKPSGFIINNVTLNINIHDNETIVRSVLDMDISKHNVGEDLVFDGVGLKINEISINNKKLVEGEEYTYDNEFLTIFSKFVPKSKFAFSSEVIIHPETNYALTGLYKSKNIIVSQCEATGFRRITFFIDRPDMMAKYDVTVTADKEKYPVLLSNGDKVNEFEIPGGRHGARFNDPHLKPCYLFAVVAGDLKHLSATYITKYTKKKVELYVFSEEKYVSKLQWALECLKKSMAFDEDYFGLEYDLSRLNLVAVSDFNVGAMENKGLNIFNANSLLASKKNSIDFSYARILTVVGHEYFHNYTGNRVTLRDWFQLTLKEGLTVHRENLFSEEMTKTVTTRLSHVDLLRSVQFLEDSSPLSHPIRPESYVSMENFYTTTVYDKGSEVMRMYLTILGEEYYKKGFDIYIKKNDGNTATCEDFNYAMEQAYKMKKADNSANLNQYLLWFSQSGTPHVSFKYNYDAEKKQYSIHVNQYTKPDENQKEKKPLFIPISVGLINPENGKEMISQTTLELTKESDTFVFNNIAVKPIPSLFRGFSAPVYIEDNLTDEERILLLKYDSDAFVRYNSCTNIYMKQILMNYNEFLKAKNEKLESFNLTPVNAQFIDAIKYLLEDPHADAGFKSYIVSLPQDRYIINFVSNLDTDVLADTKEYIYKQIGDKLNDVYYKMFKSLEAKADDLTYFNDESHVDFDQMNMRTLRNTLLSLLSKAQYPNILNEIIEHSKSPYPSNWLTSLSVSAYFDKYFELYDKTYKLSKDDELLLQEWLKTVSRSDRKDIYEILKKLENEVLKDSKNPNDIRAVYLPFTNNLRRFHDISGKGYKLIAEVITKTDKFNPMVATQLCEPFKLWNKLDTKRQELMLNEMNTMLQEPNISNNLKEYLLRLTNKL

[2] = target: T2, Leucine aminopeptidase (Plasmodium falciparum 3D7, UniProt Q8IL11); test: P. falciparum M17LAP inhibitors, primary screen, biochemical, fluorogenic H-Leu-NHMec substrate, 1536-well (AID 1619); format: functional
T2 sequence (Q8IL11 whole entry): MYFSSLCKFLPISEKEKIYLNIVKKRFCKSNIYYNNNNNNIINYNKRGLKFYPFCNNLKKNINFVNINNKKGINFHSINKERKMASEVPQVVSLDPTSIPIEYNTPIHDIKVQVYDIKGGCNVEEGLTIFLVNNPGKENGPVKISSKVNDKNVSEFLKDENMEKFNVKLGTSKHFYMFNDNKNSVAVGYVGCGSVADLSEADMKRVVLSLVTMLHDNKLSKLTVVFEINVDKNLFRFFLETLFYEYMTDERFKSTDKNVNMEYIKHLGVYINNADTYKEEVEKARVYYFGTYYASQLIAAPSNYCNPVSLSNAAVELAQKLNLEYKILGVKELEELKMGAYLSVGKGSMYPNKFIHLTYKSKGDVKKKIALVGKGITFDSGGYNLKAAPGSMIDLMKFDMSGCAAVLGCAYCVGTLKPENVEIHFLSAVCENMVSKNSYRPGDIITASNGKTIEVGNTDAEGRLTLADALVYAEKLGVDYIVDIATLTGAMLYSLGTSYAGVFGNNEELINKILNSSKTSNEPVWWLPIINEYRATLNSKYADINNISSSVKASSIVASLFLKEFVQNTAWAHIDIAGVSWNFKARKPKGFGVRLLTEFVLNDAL

[3] = target: Large T antigen (Simian virus 40, UniProt P03070); format: functional, Betapolyomavirus macacae;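 also: Confirmatory-stage PubChem screen for compounds that inhibit SV40 T antigen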
Chain of Large T antigen (P03070 whole entry): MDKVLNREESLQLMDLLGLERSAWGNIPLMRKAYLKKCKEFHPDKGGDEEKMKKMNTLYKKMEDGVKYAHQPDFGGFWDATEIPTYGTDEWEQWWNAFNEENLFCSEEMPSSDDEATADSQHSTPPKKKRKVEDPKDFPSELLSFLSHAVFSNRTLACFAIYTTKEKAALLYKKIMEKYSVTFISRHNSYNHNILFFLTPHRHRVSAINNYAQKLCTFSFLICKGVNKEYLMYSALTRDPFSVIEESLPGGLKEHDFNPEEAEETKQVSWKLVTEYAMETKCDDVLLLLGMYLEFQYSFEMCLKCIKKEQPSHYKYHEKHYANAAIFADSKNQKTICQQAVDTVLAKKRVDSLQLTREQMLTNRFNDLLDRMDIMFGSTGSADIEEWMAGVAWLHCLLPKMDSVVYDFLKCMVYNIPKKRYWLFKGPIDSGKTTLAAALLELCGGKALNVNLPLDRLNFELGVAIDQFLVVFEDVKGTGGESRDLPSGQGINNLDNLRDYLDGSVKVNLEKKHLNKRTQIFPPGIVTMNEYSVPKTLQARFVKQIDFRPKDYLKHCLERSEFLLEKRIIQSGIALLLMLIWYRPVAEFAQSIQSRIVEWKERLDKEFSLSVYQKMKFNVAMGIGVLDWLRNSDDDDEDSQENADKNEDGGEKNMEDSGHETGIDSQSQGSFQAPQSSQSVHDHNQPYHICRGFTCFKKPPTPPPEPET

[4] = target: T3, Aspartyl aminopeptidase (Plasmodium falciparum 3D7, UniProt Q8I2J3)
T3 sequence (Q8I2J3 whole entry): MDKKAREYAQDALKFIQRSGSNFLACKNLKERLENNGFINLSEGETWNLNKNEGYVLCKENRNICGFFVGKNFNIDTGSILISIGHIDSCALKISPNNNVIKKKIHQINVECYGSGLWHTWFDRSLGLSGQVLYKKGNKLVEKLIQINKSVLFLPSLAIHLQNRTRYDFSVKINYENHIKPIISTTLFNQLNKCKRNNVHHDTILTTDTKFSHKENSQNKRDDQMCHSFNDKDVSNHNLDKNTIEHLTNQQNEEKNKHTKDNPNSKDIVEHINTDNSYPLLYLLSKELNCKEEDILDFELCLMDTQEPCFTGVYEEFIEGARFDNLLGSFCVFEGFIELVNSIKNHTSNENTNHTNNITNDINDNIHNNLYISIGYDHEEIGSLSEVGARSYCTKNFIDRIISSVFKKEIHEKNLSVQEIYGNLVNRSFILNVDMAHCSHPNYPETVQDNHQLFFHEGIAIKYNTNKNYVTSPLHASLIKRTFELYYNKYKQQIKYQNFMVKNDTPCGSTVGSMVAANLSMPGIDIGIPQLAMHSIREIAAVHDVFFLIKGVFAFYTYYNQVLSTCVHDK

[5] = target: Procathepsin L (Homo sapiens, UniProt P07711)
Chain of Procathepsin L (P07711 whole entry): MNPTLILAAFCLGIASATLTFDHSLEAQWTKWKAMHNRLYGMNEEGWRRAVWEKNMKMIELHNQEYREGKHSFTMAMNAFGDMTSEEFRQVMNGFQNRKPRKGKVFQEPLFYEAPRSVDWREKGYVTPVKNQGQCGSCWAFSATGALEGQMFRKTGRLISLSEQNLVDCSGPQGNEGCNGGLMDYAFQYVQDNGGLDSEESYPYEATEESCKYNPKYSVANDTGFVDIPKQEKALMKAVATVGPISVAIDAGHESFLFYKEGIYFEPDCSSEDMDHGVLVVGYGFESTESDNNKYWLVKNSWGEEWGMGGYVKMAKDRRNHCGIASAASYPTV

[6] = target: T4, Mannose-6-phosphate isomerase (Homo sapiens, UniProt P34949); test: human PMI inhibitors, high substrate, primary screen, biochemical, fluorescence intensity, high mannose 6-phosphate (AID 1220)
T4 sequence (P34949 whole entry): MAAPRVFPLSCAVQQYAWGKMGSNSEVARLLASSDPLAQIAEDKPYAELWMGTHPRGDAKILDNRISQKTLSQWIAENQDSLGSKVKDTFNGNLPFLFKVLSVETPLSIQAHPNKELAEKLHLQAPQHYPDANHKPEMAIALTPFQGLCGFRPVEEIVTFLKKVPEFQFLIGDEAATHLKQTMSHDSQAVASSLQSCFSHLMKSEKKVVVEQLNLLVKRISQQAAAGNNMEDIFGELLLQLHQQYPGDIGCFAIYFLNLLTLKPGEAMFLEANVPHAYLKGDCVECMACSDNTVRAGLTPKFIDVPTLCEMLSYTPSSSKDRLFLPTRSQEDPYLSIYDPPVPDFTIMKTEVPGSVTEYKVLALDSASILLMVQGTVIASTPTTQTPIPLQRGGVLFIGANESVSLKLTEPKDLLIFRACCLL

[7] = target: Glucose-6-phosphate 1-dehydrogenase (Homo sapiens, UniProt P11413); test: human G6PD enzyme inhibitors, dose response, selectivity assay for P. falciparum G6PD inhibitor project, biochemical, fluorescence (AID 504792); format: functional
Chain of Glucose-6-phosphate 1-dehydrogenase (P11413 whole entry): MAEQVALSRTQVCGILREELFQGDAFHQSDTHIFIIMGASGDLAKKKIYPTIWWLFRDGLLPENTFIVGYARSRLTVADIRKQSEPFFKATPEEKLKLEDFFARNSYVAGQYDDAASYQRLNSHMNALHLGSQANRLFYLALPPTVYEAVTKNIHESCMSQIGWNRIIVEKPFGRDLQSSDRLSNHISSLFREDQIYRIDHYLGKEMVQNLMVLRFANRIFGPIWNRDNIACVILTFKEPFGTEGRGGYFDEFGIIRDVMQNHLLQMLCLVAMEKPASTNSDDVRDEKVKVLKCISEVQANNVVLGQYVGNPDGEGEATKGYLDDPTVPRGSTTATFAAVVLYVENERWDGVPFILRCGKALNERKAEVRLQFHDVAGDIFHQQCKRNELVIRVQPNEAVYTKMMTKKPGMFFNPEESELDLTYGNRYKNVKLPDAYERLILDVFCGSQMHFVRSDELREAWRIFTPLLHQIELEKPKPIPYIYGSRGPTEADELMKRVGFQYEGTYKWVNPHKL

[8] = NIH-3T3 fibroblast cytotoxicity, dose response, cytotoxicity control, cell-based, fluorescence, Alamar Blue, secondary assay (AID 2327); format: functional;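 also: NIH-3T3 mouse fibroblasts cultured with fluconazole at 8 µg/mL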
[9] = C. albicans growth with fluconazole, confirmation, fluorescence, retest (AID 2467); format: functional, cell-based
[10] = target: T5, Histone-lysine N-methyltransferase NSD2 (Homo sapiens, UniProt O96028); format: biochemical
T5 sequence (O96028 whole entry): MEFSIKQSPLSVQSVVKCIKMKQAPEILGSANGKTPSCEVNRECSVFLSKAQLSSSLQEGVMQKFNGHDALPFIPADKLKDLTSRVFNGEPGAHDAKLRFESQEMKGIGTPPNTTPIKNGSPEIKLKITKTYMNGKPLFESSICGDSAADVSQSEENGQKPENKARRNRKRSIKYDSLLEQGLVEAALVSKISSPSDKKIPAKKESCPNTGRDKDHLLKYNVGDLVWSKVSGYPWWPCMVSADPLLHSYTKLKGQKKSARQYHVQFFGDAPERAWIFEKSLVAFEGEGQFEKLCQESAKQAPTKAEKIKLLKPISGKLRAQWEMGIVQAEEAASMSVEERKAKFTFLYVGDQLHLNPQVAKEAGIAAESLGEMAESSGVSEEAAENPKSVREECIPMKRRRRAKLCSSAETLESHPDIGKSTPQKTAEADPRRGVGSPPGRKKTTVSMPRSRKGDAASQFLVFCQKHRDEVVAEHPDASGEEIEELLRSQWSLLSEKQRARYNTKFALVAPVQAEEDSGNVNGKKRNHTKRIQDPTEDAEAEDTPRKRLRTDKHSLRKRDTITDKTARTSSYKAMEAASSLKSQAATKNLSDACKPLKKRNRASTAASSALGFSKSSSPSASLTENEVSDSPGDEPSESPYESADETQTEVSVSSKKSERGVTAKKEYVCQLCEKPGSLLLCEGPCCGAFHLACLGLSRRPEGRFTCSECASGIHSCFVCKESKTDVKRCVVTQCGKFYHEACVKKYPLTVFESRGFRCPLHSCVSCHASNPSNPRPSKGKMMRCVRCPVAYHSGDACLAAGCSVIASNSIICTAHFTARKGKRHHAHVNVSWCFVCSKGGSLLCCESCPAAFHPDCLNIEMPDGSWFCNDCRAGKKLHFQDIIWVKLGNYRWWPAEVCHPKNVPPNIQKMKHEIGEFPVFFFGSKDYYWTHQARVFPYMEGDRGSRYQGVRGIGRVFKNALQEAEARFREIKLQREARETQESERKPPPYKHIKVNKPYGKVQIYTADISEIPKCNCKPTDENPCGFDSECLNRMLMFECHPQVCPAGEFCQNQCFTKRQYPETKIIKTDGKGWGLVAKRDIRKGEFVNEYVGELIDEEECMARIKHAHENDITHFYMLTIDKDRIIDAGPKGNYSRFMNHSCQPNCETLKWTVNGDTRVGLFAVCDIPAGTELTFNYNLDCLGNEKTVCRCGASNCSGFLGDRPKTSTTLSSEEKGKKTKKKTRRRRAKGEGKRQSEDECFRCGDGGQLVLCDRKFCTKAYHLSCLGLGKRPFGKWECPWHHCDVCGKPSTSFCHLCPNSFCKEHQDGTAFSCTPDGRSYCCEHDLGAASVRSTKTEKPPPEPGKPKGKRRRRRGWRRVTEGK

| SMILES | IC50 [1] | IC50 [2] | IC50 [3] | IC50 [4] | IC50 [5] | IC50 [6] | IC50 [7] | EC50 [8] | EC50 [9] | AC50 [10] |
| --- | --- | --- | --- | --- | --- | --- | --- | --- | --- | --- |
| CCOc1cc(/C=C2\N=C(SC)SC2=O)cc([N+](=O)[O-])c1OC(C)=O | 26.5 µM (active) |  |  |  |  |  |  |  |  |  |
| COc1cc(/C=C2\SC(=S)N(NS(=O)(=O)c3ccc(C)cc3)C2=O)ccc1O | 19.2 µM (active) | 27.1 µM (active) | 10.1 µM (active) |  |  |  |  |  |  |  |
| C[C@]12CC[C@@H]3c4ccc(O)c(O)c4CC[C@H]3[C@@H]1CC[C@@H]2O |  |  |  | 1.22 µM (active) | > 59.6 µM (not active) | 29 µM (active) | 29.1 µM (inactive) |  |  |  |
| COc1cccc2c(SCC(=O)N/N=C/c3ccc(O)c(O)c3)cc(C)nc12 |  | 16.2 µM (active) |  | 2.01 µM (active) | > 59.6 µM (not active) |  |  | 26.3 µM (active) | > 38 µM (not active) | 10.4 µM (active) |
